The results in this text go back to PubChem BioAssay (NCI).

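Grown in 96-well plates, cells were treated for 48 hours with each compound at five concentrations. Insufficient inhibition: endpoint recorded as highest concentration tested. At the GI50, growth is halved. At the TGI there is no net growth.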

Some test systems named below: K-562 leukemia; KM12 colon; LOX IMVI melanoma; MALME-3M melanoma; NCI/ADR-RES ovarian; SF-539 CNS; SK-OV-3 ovarian; SN12C renal; TK-10 renal; UACC-257 melanoma.
Holding throughout (assay): NCI-60 cell line screen, 48 h

On to `CCn1c(-c2nonc2N)nc2c(C#CC(C)(C)O)ncc(OC[C@H]3CCCNC3)c21`, for which the GI50 with K-562 leukemia is 11.4 µM; in the experiment with KM12 colon, 4.54 µM; with LOX IMVI melanoma it was 17.8 µM; in the experiment on MALME-3M melanoma, 13.4 µM; in the experiment on NCI/ADR-RES ovarian, more than 100 µM; in the experiment on SF-539 CNS, 0.313 µM. The GI50 is 0.866 µM with SK-OV-3 ovarian, 12.7 µM in the experiment with SN12C renal, 2.03 µM with TK-10 renal and 20.8 µM with UACC-257 melanoma. Moreover, the TGI was more than 89.2 µM in the experiment with K-562 leukemia; 63.8 µM in the experiment on KM12 colon; 45.6 µM in the experiment on LOX IMVI melanoma; 30.1 µM in the experiment with MALME-3M melanoma; more than 100 µM with NCI/ADR-RES ovarian; 16.9 µM in the experiment with SF-539 CNS. Besides, the TGI is more than 82.6 µM in the experiment on SK-OV-3 ovarian, 51.1 µM with SN12C renal, 42.6 µM with TK-10 renal and 41.2 µM in the experiment on UACC-257 melanoma.
As for `CSC(=S)OC1CC(n2cnc3c(NC(=O)c4ccccc4)ncnc32)OC1CO[Si](C)(C)C(C)(C)C` (stereo not given), the TGI in the experiment on K-562 leukemia is more than 49.5 µM; with KM12 colon, 41.6 µM; with LOX IMVI melanoma, 47.2 µM; in the experiment with MALME-3M melanoma, 51.9 µM; in the experiment with NCI/ADR-RES ovarian it was more than 56.2 µM; with SF-539 CNS, more than 46.4 µM. The TGI in the experiment on SK-OV-3 ovarian was more than 46.4 µM; in the experiment with SN12C renal, 52.2 µM; in the experiment with TK-10 renal, more than 56.2 µM; in the experiment with UACC-257 melanoma it was more than 56.2 µM.
`CCCCCCCCCCCCCCCCCCOCC(CCP(=O)(CP(=O)(O)O)Oc1ccccc1)OCCCCCCCCCCCCCCCCCC` (stereo not given): the TGI in the experiment with K-562 leukemia, in the experiment with KM12 colon, with LOX IMVI melanoma, in the experiment with MALME-3M melanoma, with NCI/ADR-RES ovarian and with SF-539 CNS was more than 100 µM in each case. For the same compound, the TGI with SK-OV-3 ovarian, in the experiment with SN12C renal, with TK-10 renal and in the experiment with UACC-257 melanoma was more than 100 µM each time.
On to `C/C(=C\c1cc(C(F)(F)F)n(-c2ccc(N)cc2)n1)[C@@H]1C[C@@H]2O[C@]2(C)CCC[C@H](C)[C@H](O)[C@@H](C)C(=O)C(C)(C)[C@@H](O)CC(=O)O1`, for which the GI50 in the experiment on K-562 leukemia is 0.0203 µM; in the experiment on KM12 colon, 0.00522 µM; in the experiment with LOX IMVI melanoma, 0.0312 µM; in the experiment on MALME-3M melanoma, 0.089 µM; with NCI/ADR-RES ovarian it was 0.164 µM; with SF-539 CNS, 0.025 µM. Moreover, the GI50 with SK-OV-3 ovarian is 0.0575 µM; with SN12C renal, 0.396 µM; in the experiment on TK-10 renal, 0.0578 µM; with UACC-257 melanoma, 0.965 µM. The TGI in the experiment with K-562 leukemia is more than 11.1 µM; with KM12 colon it was more than 11.1 µM; in the experiment on LOX IMVI melanoma, more than 11.1 µM; in the experiment with MALME-3M melanoma it was more than 11.1 µM; with NCI/ADR-RES ovarian it was more than 8.45 µM; with SF-539 CNS, 0.336 µM. Besides, the TGI in the experiment on SK-OV-3 ovarian is more than 11.1 µM; in the experiment with SN12C renal it was more than 11.1 µM; with TK-10 renal it was 7.95 µM; in the experiment on UACC-257 melanoma, more than 11.1 µM.
Consider `O=C(NO)[C@@H](Cc1ccccc1)NS(=O)(=O)c1ccc(-c2ccccc2)cc1`, for which the GI50 in the experiment on K-562 leukemia was 10.1 µM; with KM12 colon, more than 25 µM; in the experiment with LOX IMVI melanoma it was 11.9 µM; with MALME-3M melanoma it was more than 25 µM; with NCI/ADR-RES ovarian, more than 25 µM; in the experiment on SF-539 CNS, 9.56 µM. For the same compound, the GI50 with SK-OV-3 ovarian was more than 25 µM; with SN12C renal, more than 25 µM; in the experiment with TK-10 renal, 19.1 µM; in the experiment on UACC-257 melanoma, more than 25 µM. The TGI in the experiment with K-562 leukemia, with KM12 colon, in the experiment on LOX IMVI melanoma, in the experiment with MALME-3M melanoma, in the experiment on NCI/ADR-RES ovarian and in the experiment on SF-539 CNS was more than 25 µM each time. Besides, the TGI with SK-OV-3 ovarian, in the experiment with SN12C renal, with TK-10 renal and in the experiment with UACC-257 melanoma was more than 25 µM in each case.
As to `CC1=C(/C=C/C(C)=C/C=C/C(C)=C/C(=O)O)C(C)(C)CCC1`, the TGI is more than 79.9 µM in the experiment with K-562 leukemia; 60.2 µM with KM12 colon; 52.6 µM in the experiment with LOX IMVI melanoma; more than 75.6 µM with MALME-3M melanoma; 70 µM in the experiment on NCI/ADR-RES ovarian; 75.7 µM in the experiment on SF-539 CNS. Also, the TGI with SK-OV-3 ovarian was more than 100 µM; with SN12C renal, 72.1 µM; with TK-10 renal, more than 100 µM; with UACC-257 melanoma, 99.7 µM.
Consider `NS(=O)(=O)CC1CC[CH-]CC1.[Cl-].[Cl-].[Cl-].[Cl-].[Cl-].[Sb+5].c1ccncc1`, for which the GI50 with K-562 leukemia, in the experiment with KM12 colon, with LOX IMVI melanoma, in the experiment with MALME-3M melanoma, in the experiment with NCI/ADR-RES ovarian and in the experiment on SF-539 CNS was more than 100 µM each time. Besides, the GI50 in the experiment on SK-OV-3 ovarian, with SN12C renal, in the experiment on TK-10 renal and in the experiment on UACC-257 melanoma was more than 100 µM each time. Moreover, the TGI in the experiment on K-562 leukemia, with KM12 colon, in the experiment on LOX IMVI melanoma, in the experiment on MALME-3M melanoma, with NCI/ADR-RES ovarian and in the experiment with SF-539 CNS was more than 100 µM each time. The TGI with SK-OV-3 ovarian, with SN12C renal, with TK-10 renal and in the experiment with UACC-257 melanoma was more than 100 µM throughout.
`Oc1c(Cl)cc(Cl)cc1C(c1cc(Cl)cc(Cl)c1O)C(Cl)(Cl)Cl`: the GI50 in the experiment with K-562 leukemia was 1.1 µM; in the experiment on KM12 colon it was 2.83 µM; in the experiment with LOX IMVI melanoma, 2.08 µM; in the experiment on MALME-3M melanoma, 2.8 µM; in the experiment on NCI/ADR-RES ovarian it was 1.99 µM; with SF-539 CNS it was 3.17 µM. Also, the GI50 with SK-OV-3 ovarian is 3.01 µM; in the experiment with SN12C renal, 1.78 µM; in the experiment with TK-10 renal it was 4.26 µM; in the experiment on UACC-257 melanoma, 3.33 µM. The TGI worked out at 20.4 µM in the experiment with K-562 leukemia; 10.1 µM in the experiment with KM12 colon; 5.57 µM in the experiment with LOX IMVI melanoma; 7.2 µM in the experiment with MALME-3M melanoma; 7.25 µM in the experiment with NCI/ADR-RES ovarian; 13 µM in the experiment with SF-539 CNS. Moreover, the TGI in the experiment on SK-OV-3 ovarian turned out to be 13.3 µM; with SN12C renal, 13.7 µM; in the experiment with TK-10 renal, 16 µM; in the experiment on UACC-257 melanoma, 9.18 µM.
